Consider nine compounds from patent publication US20220402950A1, “SUBSTITUTED BENZIMIDAZOLES AS PAD4 INHIBITORS” (BRISTOL-MYERS SQUIBB COMPANY, priority 2018, published 2022).

In this assay the target is human PAD4 (hPAD4) (Homo sapiens, UniProt Q9UM07). In words: RFMS Human PAD4 Functional Assay. The note with it: hPAD4 RFMS IC50, human PAD4, rapid-fire mass spectrum (RFMS) assay; 5 nM hPAD4, 250 μM BAEE. Format: biochemical. The method in brief: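 RapidFire ESI-MS quantification, normalised to a modified-citrulline internal standard, after phenyl glyoxal (final 4 mM) derivatisation of the TCA-quenched reaction. The enzyme (10 nM) sat 30 min with compound (up to 50 μM final) before 500 μM BAEE (as added) started a 90 min, 37 °C reaction. Buffer: HEPES pH 7.5, 50 μM calcium, 5 μM TPEN.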
human PAD4 (hPAD4), sequence (Q9UM07 whole entry): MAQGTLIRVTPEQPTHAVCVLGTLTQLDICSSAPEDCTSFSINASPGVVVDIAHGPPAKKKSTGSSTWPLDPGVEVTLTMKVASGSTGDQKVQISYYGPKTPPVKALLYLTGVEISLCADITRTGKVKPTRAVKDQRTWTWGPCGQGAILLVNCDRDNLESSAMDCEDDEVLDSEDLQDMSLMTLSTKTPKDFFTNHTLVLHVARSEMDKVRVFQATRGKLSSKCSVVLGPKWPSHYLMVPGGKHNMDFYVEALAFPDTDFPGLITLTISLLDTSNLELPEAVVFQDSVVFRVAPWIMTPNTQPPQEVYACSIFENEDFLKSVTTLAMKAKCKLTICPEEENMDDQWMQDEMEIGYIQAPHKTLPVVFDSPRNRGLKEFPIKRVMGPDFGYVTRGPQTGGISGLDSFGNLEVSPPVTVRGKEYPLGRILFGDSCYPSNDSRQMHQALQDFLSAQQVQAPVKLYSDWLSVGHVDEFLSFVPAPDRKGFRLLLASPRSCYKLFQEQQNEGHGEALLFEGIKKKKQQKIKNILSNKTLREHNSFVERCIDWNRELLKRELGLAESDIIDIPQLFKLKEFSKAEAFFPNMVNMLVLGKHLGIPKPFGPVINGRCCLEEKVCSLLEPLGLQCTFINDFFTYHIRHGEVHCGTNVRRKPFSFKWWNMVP
One may read the IC50 as the concentration that inhibits the measured activity by half. A lower IC50 goes with higher potency. Turning to `COc1cc(C(=O)N2C[C@H]3CC[C@@H]2[C@@H]3N)cc2nc(-c3cc4cccc(-c5cc[nH]n5)c4n3CC3CC3)n(C)c12` [Example 127, ((1R,4R,7R)-7-amino-2-azabicyclo[2.2.1]heptan-2-yl)(2-(1-(cyclopropylmethyl)-7-(1H-pyrazol-3-yl)-1H-indol-2-yl)-7-methoxy-1-methyl-1H-benzo[d]imidazol-5-yl)methanone], half-maximal inhibition (IC50) was put at 82 nM.
The figure for `C#CCOCC(O)Cn1cc(-c2cccc3cc(-c4nc5cc(C(=O)N6CC7CCC6[C@@H]7N)cc(OC)c5n4C)n(CC4CC4)c23)cn1` (stereo partly drawn) [Example 128, ((7R)-7-amino-2-azabicyclo[2.2.1]heptan-2-yl)(2-(1-(cyclopropylmethyl)-7-(1-(2-hydroxy-3-(prop-2-yn-1-yloxy)propyl)-1H-pyrazol-4-yl)-1H-indol-2-yl)-7-methoxy-1-methyl-1H-benzo[d]imidazol-5-yl)methanone] is 130 nM.
Turning to `COc1cc(C(=O)N2CC3CCC2[C@@H]3N)cc2nc(-c3cc4cccc(-c5ccoc5)c4n3CC3CC3)n(C)c12` (stereo partly drawn) [Example 129, ((7R)-7-amino-2-azabicyclo[2.2.1]heptan-2-yl)(2-(1-(cyclopropylmethyl)-7-(furan-3-yl)-1H-indol-2-yl)-7-methoxy-1-methyl-1H-benzo[d]imidazol-5-yl)methanone], the IC50 worked out at 194 nM.
`COc1cc(C(=O)N2CC3CCC2[C@@H]3N)cc2nc(-c3cc4cccc(-c5ccco5)c4n3CC3CC3)n(C)c12` (stereo partly drawn) [Example 130, ((7R)-7-amino-2-azabicyclo[2.2.1]heptan-2-yl)(2-(1-(cyclopropylmethyl)-7-(furan-2-yl)-1H-indol-2-yl)-7-methoxy-1-methyl-1H-benzo[d]imidazol-5-yl)methanone] gave an IC50 of 178 nM.
As for `COc1cc(C(=O)N2C[C@H]3CC[C@@H]2[C@@H]3N)cc2nc(-c3cc4cccc(-c5cccs5)c4n3CC3CC3)n(C)c12` [Example 131, ((1R,4R,7R)-7-amino-2-azabicyclo[2.2.1]heptan-2-yl)(2-(1-(cyclopropylmethyl)-7-(thiophen-2-yl)-1H-indol-2-yl)-7-methoxy-1-methyl-1H-benzo[d]imidazol-5-yl)methanone], the figure is 156 nM; as for `COc1cc(C(=O)N2CC3CCC2[C@@H]3N)cc2nc(-c3cc4cccc(-c5cnn(C6CCOCC6)c5)c4n3CC3CC3)n(C)c12` (stereo partly drawn) [Example 132, ((7R)-7-amino-2-azabicyclo[2.2.1]heptan-2-yl)(2-(1-(cyclopropylmethyl)-7-(1-(tetrahydro-2H-pyran-4-yl)-1H-pyrazol-4-yl)-1H-indol-2-yl)-7-methoxy-1-methyl-1H-benzo[d]imidazol-5-yl)methanone], 179 nM; as for `COc1cc(C(=O)N2CC3CCC2[C@@H]3N)cc2nc(-c3cc4cccc(-c5ccc(NC(C)=O)cc5)c4n3CC3CC3)n(C)c12` (stereo partly drawn) [Example 133, N-(4-(2-(5-((7R)-7-amino-2-azabicyclo[2.2.1]heptane-2-carbonyl)-7-methoxy-1-methyl-1H-benzo[d]imidazol-2-yl)-1-(cyclopropylmethyl)-1H-indol-7-yl)phenyl)acetamide], 121 nM.
Compound `COc1cc(C(=O)N2CC3CCC2[C@@H]3N)cc2nc(-c3cc4cccc(-c5cccnc5)c4n3CC3CC3)n(C)c12` (stereo partly drawn) [Example 134, ((7R)-7-amino-2-azabicyclo[2.2.1]heptan-2-yl)(2-(1-(cyclopropylmethyl)-7-(pyridin-3-yl)-1H-indol-2-yl)-7-methoxy-1-methyl-1H-benzo[d]imidazol-5-yl)methanone] displayed an IC50 of 155 nM.
The figure for `COc1cc(C(=O)N2CC3CCC2[C@@H]3N)cc2nc(-c3cc4cccc(-c5cn(C)nc5-c5ccccc5F)c4n3CC3CC3)n(C)c12` (stereo partly drawn) [Example 135, ((7R)-7-amino-2-azabicyclo[2.2.1]heptan-2-yl)(2-(1-(cyclopropylmethyl)-7-(3-(2-fluorophenyl)-1-methyl-1H-pyrazol-4-yl)-1H-indol-2-yl)-7-methoxy-1-methyl-1H-benzo[d]imidazol-5-yl)methanone] is 96 nM.
